Measurements: ChEMBL document CHEMBL1201862, “PubChem BioAssay data set” (2004)
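Exposure lasted 48 hours, with cells grown in 96-well plates and compounds tested at five concentrations. GI50 marks 50% less growth.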 Activity calls are given as the source filed them. No stated cut-off is given here; in the data, active = GI50 up to about 1.1 µM and inactive = higher.

How the values were obtained:
Experiment in all cases: growth of human tumour cells (NCI), 48 h
786-0 = system: 786-0
A498 = system: A498
ACHN = system: ACHN
CAKI-1 = system: CAKI-1
COLO 205 = system: COLO 205
HCC 2998 = system: HCC 2998
HOP-62 = system: HOP-62
HT-29 = system: HT-29
K562 = system: K562
M14 = system: M14
NCI-H226 = system: NCI-H226
NCI-H23 = system: NCI-H23
NCI-H460 = system: NCI-H460
OVCAR-3 = system: OVCAR-3
OVCAR-8 = system: OVCAR-8
SF-539 = system: SF-539
SK-MEL-5 = system: SK-MEL-5
UACC-62 = system: UACC-62
BT-549 = system: BT-549

Measured: GI50

O=C(O)CCC(=O)N1c2ccccc2CC1c1c[nH]c2ccccc12 (stereo unspecified)
inactive: 786-0 > 100 µM | A498 > 100 µM | ACHN > 100 µM | CAKI-1 > 100 µM | COLO 205 > 100 µM | HCC 2998 > 100 µM | HOP-62 > 100 µM | HT-29 > 100 µM | K562 > 100 µM | M14 > 100 µM | NCI-H226 > 100 µM | NCI-H23 > 100 µM | NCI-H460 > 100 µM | OVCAR-3 > 100 µM | OVCAR-8 > 100 µM | SF-539 > 100 µM | SK-MEL-5 > 100 µM | UACC-62 > 100 µM

O=C(/C=C/c1ccc2c(c1)OCO2)NCCc1ccco1
inactive: ACHN 53 µM | BT-549 > 100 µM | CAKI-1 52.5 µM | COLO 205 > 100 µM | HCC 2998 > 100 µM | HOP-62 83.8 µM | HT-29 > 100 µM | K562 39.7 µM | M14 45.5 µM | NCI-H226 90.2 µM | NCI-H23 > 100 µM | NCI-H460 69.8 µM | OVCAR-3 34.4 µM | OVCAR-8 > 100 µM | SF-539 > 100 µM | SK-MEL-5 23.7 µM | UACC-62 44.2 µM

COc1ccc(Oc2nc(C#CC(C)(C)O)nc(Oc3ccc(OC)cc3)n2)cc1
inactive: A498 17.8 µM | ACHN 1.69 µM | BT-549 14.9 µM | CAKI-1 3.67 µM | COLO 205 3.59 µM | HOP-62 21.8 µM | HT-29 3.3 µM | K562 1.67 µM | M14 2.2 µM | NCI-H23 7.74 µM | NCI-H460 16.7 µM | OVCAR-3 2.1 µM | OVCAR-8 3.76 µM | SF-539 7.08 µM | SK-MEL-5 14.5 µM | UACC-62 11.6 µM

S=c1[nH]nc(COc2ccc3c(c2)CCCC3)n1/N=C/c1ccc(Cl)cc1
inactive: ACHN 20.1 µM | BT-549 17 µM | CAKI-1 18.6 µM | COLO 205 16.6 µM | HOP-62 15.9 µM | K562 17.3 µM | M14 18 µM | NCI-H23 19.5 µM | NCI-H460 15.8 µM | OVCAR-3 16 µM | OVCAR-8 16.6 µM | SF-539 17.6 µM | SK-MEL-5 15.7 µM | UACC-62 19.1 µM

C/C(=C/C(=O)N(C)c1ccccc1Cl)O[Si](C(C)C)(C(C)C)C(C)C
inactive: 786-0 18.1 µM | A498 > 10 µM | ACHN > 10 µM | BT-549 22.5 µM | CAKI-1 40.7 µM | COLO 205 16.8 µM | HOP-62 26.8 µM | HT-29 17.6 µM | M14 27.5 µM | NCI-H226 15.8 µM | NCI-H23 24.7 µM | NCI-H460 26.9 µM | OVCAR-3 18.2 µM | OVCAR-8 20.7 µM | SF-539 21.3 µM | SK-MEL-5 16.4 µM

O=c1[nH]nc(NNc2ccccc2)c2nnn(C3CCCCC3)c12
inactive: ACHN > 100 µM | BT-549 > 100 µM | CAKI-1 > 100 µM | COLO 205 > 100 µM | HCC 2998 > 100 µM | HOP-62 > 100 µM | HT-29 > 100 µM | K562 > 100 µM | M14 > 100 µM | NCI-H23 > 100 µM | NCI-H460 77.6 µM | OVCAR-3 > 100 µM | OVCAR-8 88.1 µM | SK-MEL-5 > 100 µM

CCP(=O)(CC)C(Cl)(Cl)C(=O)NC
inactive: ACHN > 100 µM | CAKI-1 > 100 µM | COLO 205 > 100 µM | HCC 2998 > 100 µM | HOP-62 > 100 µM | HT-29 > 100 µM | K562 > 100 µM | M14 > 100 µM | NCI-H226 > 100 µM | NCI-H23 > 100 µM | NCI-H460 > 100 µM | OVCAR-3 > 100 µM | OVCAR-8 > 100 µM | SK-MEL-5 > 100 µM

CS(=O)(=O)OCC(CCl)(CCl)CCl
inactive: A498 > 100 µM | ACHN > 100 µM | COLO 205 > 100 µM | HCC 2998 > 100 µM | HT-29 > 100 µM | K562 > 100 µM | M14 > 100 µM | NCI-H226 > 100 µM | NCI-H23 > 100 µM | NCI-H460 > 100 µM | OVCAR-3 > 100 µM | OVCAR-8 > 100 µM | SK-MEL-5 > 100 µM

c1ccc(CN[C@]23C4C5CC6C7C5C2C7[C@@](NCc2ccccc2)(C64)N3Cc2ccccc2)cc1 (stereo partly specified)
inactive: 786-0 > 100 µM | A498 > 100 µM | ACHN > 100 µM | BT-549 > 100 µM | CAKI-1 > 100 µM | COLO 205 > 100 µM | HOP-62 > 100 µM | HT-29 > 100 µM | K562 > 100 µM | M14 > 100 µM | NCI-H226 > 100 µM | NCI-H23 > 100 µM | NCI-H460 > 100 µM | OVCAR-3 > 100 µM | OVCAR-8 > 100 µM | SF-539 > 100 µM | SK-MEL-5 > 100 µM | UACC-62 > 100 µM

CCCCN(CCCC)C1=Nc2ccccc2-n2c(nnc2C(=O)OCC)C1
inactive: 786-0 73.1 µM | ACHN 38.3 µM | CAKI-1 49.9 µM | COLO 205 18.5 µM | HCC 2998 38.8 µM | HOP-62 95.1 µM | HT-29 22 µM | K562 16.5 µM | M14 44.3 µM | NCI-H226 50.6 µM | NCI-H23 74.6 µM | NCI-H460 22.7 µM | OVCAR-3 37.2 µM | OVCAR-8 69.3 µM | SF-539 44.4 µM | SK-MEL-5 15.1 µM | UACC-62 47.2 µM

Cc1c2ccccc2nc2[nH]c3ccncc3c12
inactive: 786-0 16.3 µM | A498 42.9 µM | ACHN 18.7 µM | BT-549 40.6 µM | CAKI-1 25.2 µM | COLO 205 40.4 µM | HOP-62 25.6 µM | HT-29 28.2 µM | K562 51.5 µM | M14 32.8 µM | NCI-H23 33 µM | NCI-H460 15.4 µM | OVCAR-3 30.3 µM | OVCAR-8 31.3 µM | SF-539 36.8 µM | SK-MEL-5 29.4 µM | UACC-62 25.4 µM

CCCNC1=Nc2ccccc2N(Cc2ccccc2)CC1
inactive: 786-0 32.4 µM | A498 11.4 µM | ACHN 23.2 µM | BT-549 15.5 µM | CAKI-1 21.3 µM | COLO 205 10.9 µM | HOP-62 30.5 µM | HT-29 19.5 µM | K562 5.57 µM | M14 14.3 µM | NCI-H226 26.6 µM | NCI-H23 16.5 µM | NCI-H460 13.4 µM | OVCAR-3 32.4 µM | OVCAR-8 14.9 µM | SK-MEL-5 15 µM | UACC-62 13.5 µM
